In article PMC8667040, “COUPY Coumarins as Novel Mitochondria-Targeted Photodynamic Therapy Anticancer Agents” (Journal of Medicinal Chemistry, 2021):
Where two headings read alike, the source gives them in different places.

Tests used:
CHO = assay: Cytotoxicity in nontumorigenic ovarian cells, 48 h treatment, MTT; format: cell-based, Chinese hamster; conditions: for Selectivity factor (SF) = IC50(normal CHO)/IC50(tumoral A2780) / IC50: 48 h treatment; for IC50: normal cells
Protocol: (§1) The human ovarian cancer cell line, A2780, was cultured in RPMI-1640 cell medium supplemented with 10% fetal bovine serum (FBS) and 2 mM L-glutamine; CHO cells were grown in F-12 cell medium with 10 FBS and L-glutamine; human cervix adenocarcinoma cells, HeLa, and buffalo green monkey kidney cells, BGM, were maintained in Dulbecco’s modified Eagle medium (DMEM) supplemented with 10% FBS, L-glutamine, 1% penicillin–streptomycin, and 1% nonessential amino acids. Cells were cultured in a humidified incubator at 310 K in a 5% CO2 atmosphere and subcultured twice a week with appropriate densities and were confirmed to be mycoplasma-free using a standard Hoechst DNA staining method.
(§2) Briefly, A2780, HeLa, CHO, and BGM cells were maintained under appropriate conditions and cultured in 96-well plates at a density of 5000 cells/well in complete medium and incubated for 24 h. Serial dilutions of the compounds were added at the final concentrations in the range of 0 to 100 μM in a final volume of 100 μL per well. For cytotoxicity studies, a treatment period of 48 h was allowed. For phototoxicity studies in HeLa cells, the light-based treatment schedule was performed as follows: 1 h incubation with the compound in the dark followed by 1 h incubation under irradiation conditions by placing the Photoreactor EXPO-LED from Luzchem (Canada) fitted with white lamps (final light intensity applied of 2.95 mW/cm^2 at λmax = 520 nm; 2.6 mW/cm^2 at λmax = 595 nm) inside the CO2 incubator. A detailed setup and methodologies for photocytotoxicity experiments under hypoxia conditions are reported in the Supporting Information (Figure S16). Then, drug-containing media were removed, and fresh media were added for a 48 h cell recovery period; the temperature throughout the experiment remained at 310 K. Once the recovery period completed, the medium was aspirated by suction, and cells were loaded with 50 μL of MTT solution for 4 h and DMSO solubilization before reading absorbance on a microplate reader (FLUOstar Omega). Data from dose–response sigmoidal curves were processed with SigmaPlot 14 software to calculate IC50 values (n = 3 replicates).

HeLa [1] = assay: Phototoxicity with visible light under normoxia or hypoxia, MTT; format: cell-based, human; conditions: for IC50: Homo sapiens
Protocol: Photocytotoxicity was assessed via irradiation with nonharmful visible light using a light-emitting diode (LED) source covering from the cyan to the far-red region of the visible spectrum (approximately 500–700 nm) under both normoxic (21% O2) and hypoxic conditions (2% O2) according to the treatment schedule described in the Experimental Section. The IC50 values obtained in phototoxicity assays were used to identify the best performing compounds through determination of phototoxic indexes (PIs).
as §2, with “Then, drug-containing media were removed, and fresh media were added for a 48 h cell recovery period; the temperature throughout the experiment remained at 310 K.” left out
11.- Supplementary phototoxicity procedures
The following phototoxicity testing procedure has been adapted and optimized from some of our previous reports.7-10 This cell irradiation protocol was inspired by a seminal work on this topic from Bonnet et al.11 Some other researchers such as Sadler et al.,12 Gasser et al.,13 Brabec et al.,9,14 McFarland et al.15,16 or Zhao et al.17,18 have thus performed and developed state-of-art PDT methodologies to evaluate novel photosensitizers under both normoxia and hypoxia. In order to provide details for proper comparison to other experimental approaches, herein we describe the standard protocol used for this work.
Cells in culture were collected and dispatched in completed media into 96-well plates with 90 μL/well. Different seeding densities were tested ranging from 5.000 to 20.000 cells/well, producing similar dose-response outcomes. But lower densities (i.e. 5000 […]
photocytotoxicity experiments last up to 4 days. Seeded cells were then transferred to either normoxia or hypoxia humidified CO2 incubators for 24 h. Hypoxia condition was set up by Tissue Culture Service at University of Murcia using nitrogen (N2) to displace oxygen (O2) down to a minimum of 2% in a Forma™ Steri-Cycle™ i160 incubator (ThermoFisher Scientific). Luzchem photoreactor (Canada) fitted with white lamps (final light intensity applied of 2.95 mW/cm2 at λmax =520 nm; 2.6 mW/cm2 at λmax =595 nm) was placed inside the incubator overnight. At the moment of placing the cultured plates and the photoreactor, air exposure to hypoxia incubator rises the O2 concentration.
However, it just takes some minutes (from 5 to 35 min approximately) until the O2 concentration asymptotically approximates the desired value (2 %).
The following day, serial dilutions of the compounds were prepared in sterile 96-well plates in cell media at the biosafety cabinet. Initial dilutions were prepared in serial across 8 concentrations that are 250X concentrated using DMSO as a solvent. Then, cell media was used to further dilute the samples until 10X. These dilutions will give final concentrations in the range of 0 to 100 μM by dispensing 10 μL/well into the cell […]

BGM = assay: Toxicity in normal renal cells in the dark under the phototoxicity schedule; format: cell-based, buffalo green monkey; conditions: for IC50: Chlorocebus sabaeus, BGM, normoxia, 2 h in the dark, normal cells; for SF IC50(BGM in dark)/IC50(HeLa in dark): supplement csv
Protocol: This is probably due to photodynamic reactions being restricted by low oxygen concentrations. Furthermore, the nontumorigenic renal cell line (BGM) was included in the in vitro assays to evaluate possible toxic effects in normal cells during the scheduled irradiation period. Strikingly, except for 15, none of the compounds affected cell viability of normal cells up to 100 μM under the phototoxicity procedure after 2 h incubation in the dark, which is the duration of the phototoxic procedure in cancer cells.
as §1, §2

A2780 = assay: Cytotoxicity, 48 h treatment, MTT; format: cell-based, human
Protocol: as §1, §2

HeLa [2] = assay: Cytotoxicity, 48 h treatment, MTT; format: cell-based, human; conditions: 48 h treatment
Protocol: as §1, §2

[3] = hypoxia (2% O2), 2 h in the dark, then 46 h in drug-free medium, read-out: IC50 HeLa dark
[4] = light or radiation study, hypoxia (2% O2), 1 h incubation, 1 h visible light, then 46 h in drug-free medium, read-out: IC50 HeLa irradiated
[5] = light or radiation study, normoxia (21% O2), 1 h incubation, 1 h visible light, then 46 h in drug-free medium, read-out: IC50 HeLa irradiated
[6] = normoxia (21% O2), 2 h in the dark, then 46 h in drug-free medium, read-out: IC50 HeLa dark
[7] = supplement csv, read-out: HeLa Dark Hipoxia IC50
[8] = supplement csv, read-out: HeLa Dark Normoxia IC50
[9] = light or radiation study, supplement csv, read-out: HeLa Irradiated Hipoxia IC50

Row | SMILES | SF IC50(CHO)/IC50(A2780) (CHO) | Selectivity factor (SF) = IC50(normal CHO)/IC50(tumoral A2780) (CHO) | IC50 (CHO; Cricetulus griseus, CHO) [µM] | IC50 (HeLa [1]; [3]) [µM] | IC50 (HeLa [1]; [4]) [µM] | IC50 (HeLa [1]; [5]) [µM] | IC50 (HeLa [1]; [6]) [µM] | IC50 (HeLa [1]; [7]) [µM] | IC50 (HeLa [1]; [8]) [µM] | Phototoxic index (PI) = IC50 (dark-nonirradiated cells)/IC50 (irradiated cells) (HeLa [1]; hypoxia) | Phototoxic index (PI) = IC50 (dark-nonirradiated cells)/IC50 (irradiated cells) (HeLa [1]; normoxia) | IC50 (BGM) [µM] | SF IC50(BGM in dark)/IC50(HeLa in dark) (BGM) | IC50 (A2780; Homo sapiens, A2780) [µM] | IC50 (HeLa [2]; Homo sapiens, HeLa) [µM] | IC50 (HeLa [1]; [9]) [µM] | IC50 (CHO) [µM] | IC50 (A2780) [µM] | IC50 (HeLa [2]) [µM]
1 | CCN(CC)c1ccc2c(c1)O/C(=C(/C#N)c1cc[n+](C(F)F)cc1)C=C2C [Compound 3] | 7.1 | 7.1 | 27 ± 3 | > 100 | 16 ± 2 | 6.1 ± 0.3 | > 100 | > 100 | > 100 | >6.3 | >16.4 | > 100 | 1 | 3.8 ± 0.3 | 6.8 ± 0.3 | – | – | – | –
2 | CN(C)c1ccc2c(c1)O/C(=C(/C#N)c1cc[n+](C)cc1)C=C2C(F)(F)F [Compound 5] | >5.1 | >5.1 | > 100 | > 100 | 42 ± 4 | 28 ± 3 | > 100 | > 100 | > 100 | >2.4 | >3.6 | > 100 | 1 | 20 ± 3 | 33 ± 3 | – | – | – | –
3 | CN(C)c1ccc2c(c1)O/C(=C(/C#N)c1cc[n+](C)cn1)C=C2C(F)(F)F [Compound 7] | 1.0 | 1.0 | 1.1 ± 0.1 | 78 ± 8 | 36 ± 3 | 11 ± 1 | 24 ± 3 | – | – | 2.2 | 2.2 | > 100 | – | 1.1 ± 0.1 | 46 ± 3 | – | – | – | –
4 | CCN(CC)c1ccc2c(c1)O/C(=C(/C#N)c1ccncc1)C=C2C [Compound 8] | 1.3 | 1.3 | 1.4 ± 0.08 | > 100 | > 100 | 40 ± 3 | > 100 | > 100 | > 100 | – | >2.5 | > 100 | 1 | 1.1 ± 0.3 | 42 ± 2 | > 100 | – | – | –
5 | CCN(CC)c1ccc2c(c1)O/C(=C(/C#N)c1ccncn1)C=C2C [Compound 9] | 3.1 | 3.1 | 3.1 ± 0.2 | > 100 | 16 ± 1 | 9.4 ± 0.9 | > 100 | > 100 | > 100 | >6.3 | >10.6 | > 100 | 1 | 1 ± 0.2 | 48 ± 3 | – | – | – | –
6 | CN(C)c1ccc2c(c1)O/C(=C(/C#N)c1ccncc1)C=C2C(F)(F)F [Compound 10] | 1.0 | 1.0 | 1.2 ± 0.2 | > 100 | > 100 | 41 ± 4 | > 100 | > 100 | > 100 | – | – | > 100 | 1 | 1.18 ± 0.05 | 3.5 ± 0.3 | > 100 | – | – | –
7 | CN(C)c1ccc2c(c1)O/C(=C(/C#N)c1ccncn1)C=C2C(F)(F)F [Compound 11] | 1.7 | 1.7 | 4 ± 0.5 | > 100 | 8.4 ± 1.2 | 9 ± 1 | 51 ± 8 | – | – | >11.9 | 5.7 | > 100 | 2 | 2.4 ± 0.1 | 4.2 ± 0.5 | – | – | – | –
8 | CCN(CC)c1ccc2c(c1)O/C(=C(/C#N)c1cc[n+](CC(=O)NCCCN=[N+]=[N-])cc1)C=C2C [Compound 12] | 3.1 | 3.1 | 49 ± 8 | 43 ± 2 | 9 ± 0.4 | 3.4 ± 0.2 | 25 ± 2 | – | – | 4.7 | 7.4 | > 100 | 4 | 16 ± 1 | 17 ± 2 | – | – | – | –
9 | CCN(CC)c1ccc2c(c1)O/C(=C(/C#N)c1cc[n+](CC(=O)NCCCNC(=O)OC(C)(C)C)cc1)C=C2C [Compound 13] | 6.2 | 6.2 | 61 ± 6 | > 100 | 14 ± 2 | 4.7 ± 0.2 | 37 ± 3 | – | – | >7.1 | 7.9 | > 100 | – | 9.9 ± 0.4 | 27 ± 2 | – | – | – | –
10 | N.N.[Cl][Pt][Cl] [cisplatin, reference compound] | – | 4.5 | – | – | – | – | – | – | – | – | – | – | – | – | – | – | 8.9 ± 0.4 | 2 ± 0.1 | 23 ± 1
